Measurements from PubChem BioAssay AID1963839 (Molecular Pharmacology Branch, DTP, NCI, 2024).

Test system: 817829-284-R-J1-PDC complex spheroid viability
Experiment: Anticancer human tumor 817829-284-R-J1-PDC patient-derived colon adenocarcinoma cell line growth inhibition [POLQ]
Conditions: for IC50: curve of first compound; for viability, T/C: stronger effect = lower value
How it was run: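 Complex spheroid viability model combining PDC tumour cells with endothelial (HUVEC) and MSC stromal cells. Novobiocin, ART-558 or RP6685 were tested singly and in combination with standard and investigational anticancer drugs. Each was titrated in half-log steps from near clinical Cmax, or from 10 microM where Cmax was unknown.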

[1] = second compound 0.0316 µM, first compound 0.0316 µM
[2] = second compound 0.0316 µM, first compound 0.1 µM
[3] = second compound 0.0316 µM, first compound 0.316 µM
[4] = second compound 0.0316 µM, first compound 1 µM
[5] = second compound 0.0316 µM, first compound 3.16 µM
[6] = second compound 0.0316 µM, first compound 10 µM
[7] = second compound 0.1 µM, first compound 0.0316 µM
[8] = second compound 0.1 µM, first compound 0.1 µM
[9] = second compound 0.1 µM, first compound 0.316 µM
[10] = second compound 0.1 µM, first compound 1 µM
[11] = second compound 0.1 µM, first compound 3.16 µM
[12] = second compound 0.1 µM, first compound 10 µM
[13] = second compound 0.316 µM, first compound 0.0316 µM
[14] = second compound 0.316 µM, first compound 0.1 µM
[15] = second compound 0.316 µM, first compound 0.316 µM
[16] = second compound 0.316 µM, first compound 1 µM
[17] = second compound 0.316 µM, first compound 3.16 µM
[18] = second compound 0.316 µM, first compound 10 µM
[19] = second compound 1 µM, first compound 0.0316 µM
[20] = second compound 1 µM, first compound 0.1 µM
[21] = second compound 1 µM, first compound 0.316 µM
[22] = second compound 1 µM, first compound 1 µM
[23] = second compound 1 µM, first compound 3.16 µM
[24] = second compound 1 µM, first compound 10 µM
[25] = second compound 3.16 µM, first compound 0.0316 µM
[26] = second compound 3.16 µM, first compound 0.1 µM
[27] = second compound 3.16 µM, first compound 0.316 µM
[28] = second compound 3.16 µM, first compound 1 µM
[29] = second compound 3.16 µM, first compound 3.16 µM
[30] = second compound 3.16 µM, first compound 10 µM
[31] = second compound 10 µM, first compound 0.0316 µM
[32] = second compound 10 µM, first compound 0.1 µM
[33] = second compound 10 µM, first compound 0.316 µM
[34] = second compound 10 µM, first compound 1 µM
[35] = second compound 10 µM, first compound 3.16 µM
[36] = second compound 10 µM, first compound 10 µM
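Further: spheroids exposed to compounds for 7 days.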
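Wherever viability, T/C is given: 100% = DMSO vehicle-treated spheroids.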

Work on `CCc1cc2c(N3CCc4c(cc(Cn5ccnc5)cc4-c4cn(C)nc4C(F)(F)F)C3=O)ccnc2c(OC)n1` + Nc1ccc(C#CCN(C(=O)Cc2ncc(C(F)(F)F)cc2C(F)(F)F)c2ccc(F)cc2)nn1 yielded an IC50 (second compound 0.0316 µM) of 2.59 µM, an IC50 (second compound 0.1 µM) of 2.41 µM and an IC50 (second compound 0.316 µM) of 2.61 µM. The IC50 (second compound 1 µM) was 2.33 µM, the IC50 (second compound 3.16 µM) was 3.44 µM and the IC50 (second compound 10 µM) was 2.63 µM. The viability, T/C [1] was 84.2%, the viability, T/C [2] was 77.9% and the viability, T/C [3] was 84.1%. For the same compound, the viability, T/C [4] was 76.3%, the viability, T/C [5] was 44.5% and the viability, T/C [6] was 29.7%. It also gave a viability, T/C [7] of 83.7%, a viability, T/C [8] of 82.7% and a viability, T/C [9] of 78.2%. It also gave a viability, T/C [10] of 67.9%, a viability, T/C [11] of 44% and a viability, T/C [12] of 37.5%. For the same compound, the viability, T/C [13] was 86.3%, the viability, T/C [14] was 74.6% and the viability, T/C [15] was 64%. For the same compound, the viability, T/C [16] was 64.8%, the viability, T/C [17] was 49% and the viability, T/C [18] was 34%. For the same compound, the viability, T/C [19] was 83.6%, the viability, T/C [20] was 70.5% and the viability, T/C [21] was 74.8%. For the same compound, the viability, T/C [22] was 60.7%, the viability, T/C [23] was 44.8% and the viability, T/C [24] was 31%. For the same compound, the viability, T/C [25] was 97.5%, the viability, T/C [26] was 95% and the viability, T/C [27] was 72.7%. For the same compound, the viability, T/C [28] was 68.8%, the viability, T/C [29] was 52.1% and the viability, T/C [30] was 33.9%. The viability, T/C [31] was 83.8%, the viability, T/C [32] was 84% and the viability, T/C [33] was 69.7%. It also gave a viability, T/C [34] of 67.3%, a viability, T/C [35] of 45.5% and a viability, T/C [36] of 31.4%.

With `COc1cc2cc(C(=O)CCC(=O)O)sc2cc1OC` + Nc1ccc(C#CCN(C(=O)Cc2ncc(C(F)(F)F)cc2C(F)(F)F)c2ccc(F)cc2)nn1 the IC50 (second compound 0.0316 µM) was > 10 µM, the IC50 (second compound 0.1 µM) was > 10 µM and the IC50 (second compound 0.316 µM) was > 10 µM. For the same compound, the IC50 (second compound 1 µM) was > 10 µM, the IC50 (second compound 3.16 µM) was > 10 µM and the IC50 (second compound 10 µM) was > 10 µM. The viability, T/C [1] was 91.1%, the viability, T/C [2] was 98.4% and the viability, T/C [3] was 90.1%. For the same compound, the viability, T/C [4] was 110%, the viability, T/C [5] was 136% and the viability, T/C [6] was 99.3%. The viability, T/C [7] was 99.4%, the viability, T/C [8] was 97.4% and the viability, T/C [9] was 101%. For the same compound, the viability, T/C [10] was 86.8%, the viability, T/C [11] was 105% and the viability, T/C [12] was 105%. For the same compound, the viability, T/C [13] was 93.1%, the viability, T/C [14] was 101% and the viability, T/C [15] was 114%. It also gave a viability, T/C [16] of 110%, a viability, T/C [17] of 108% and a viability, T/C [18] of 110%. It also gave a viability, T/C [19] of 96.1%, a viability, T/C [20] of 97% and a viability, T/C [21] of 104%. It also gave a viability, T/C [22] of 95.9%, a viability, T/C [23] of 103% and a viability, T/C [24] of 112%. For the same compound, the viability, T/C [25] was 102%, the viability, T/C [26] was 107% and the viability, T/C [27] was 99.7%. The viability, T/C [28] was 112%, the viability, T/C [29] was 117% and the viability, T/C [30] was 108%. It also gave a viability, T/C [31] of 99.8%, a viability, T/C [32] of 109% and a viability, T/C [33] of 98.1%. It also gave a viability, T/C [34] of 95.3%, a viability, T/C [35] of 93% and a viability, T/C [36] of 91.7%.

`O=C(Nc1ccc(O)c(NS(=O)(=O)c2ccc(F)cc2)c1)c1ccc(-c2ccccc2)cc1` + Nc1ccc(C#CCN(C(=O)Cc2ncc(C(F)(F)F)cc2C(F)(F)F)c2ccc(F)cc2)nn1 was tested, and the IC50 (second compound 0.0316 µM) was 6.53 µM, the IC50 (second compound 0.1 µM) was 7.12 µM and the IC50 (second compound 0.316 µM) was 6.8 µM. For the same compound, the IC50 (second compound 1 µM) was 7.73 µM, the IC50 (second compound 3.16 µM) was 7.08 µM and the IC50 (second compound 10 µM) was 6.95 µM. For the same compound, the viability, T/C [1] was 109%, the viability, T/C [2] was 94.8% and the viability, T/C [3] was 107%. For the same compound, the viability, T/C [4] was 101%, the viability, T/C [5] was 70.2% and the viability, T/C [6] was 38.1%. It also gave a viability, T/C [7] of 103%, a viability, T/C [8] of 110% and a viability, T/C [9] of 90.6%. For the same compound, the viability, T/C [10] was 102%, the viability, T/C [11] was 74.7% and the viability, T/C [12] was 39.7%. For the same compound, the viability, T/C [13] was 113%, the viability, T/C [14] was 105% and the viability, T/C [15] was 105%. For the same compound, the viability, T/C [16] was 107%, the viability, T/C [17] was 76.9% and the viability, T/C [18] was 36.5%. For the same compound, the viability, T/C [19] was 113%, the viability, T/C [20] was 102% and the viability, T/C [21] was 100%. It also gave a viability, T/C [22] of 98.2%, a viability, T/C [23] of 86.6% and a viability, T/C [24] of 39.5%. The viability, T/C [25] was 100%, the viability, T/C [26] was 98.5% and the viability, T/C [27] was 119%. It also gave a viability, T/C [28] of 96.2%, a viability, T/C [29] of 88% and a viability, T/C [30] of 34.1%. It also gave a viability, T/C [31] of 103%, a viability, T/C [32] of 88.9% and a viability, T/C [33] of 113%. The viability, T/C [34] was 97.2%, the viability, T/C [35] was 85.3% and the viability, T/C [36] was 33.8%.
